Reference: ChEMBL document CHEMBL1201862, “PubChem BioAssay data set” (2004)
The source made the active and inactive calls.

Tests used:
SUMO-activating enzyme [1] = biological target: T1, SUMO-activating enzyme (Homo sapiens, UniProt Q9UBT2); experiment: blockers of UBC9-mediated SUMO conjugation – biochemical, AlphaScreen, SUMOylation inhibitor project, confirmation (AID 2018); type: functional
SUMO-activating enzyme [2] = biological target: T1, SUMO-activating enzyme; experiment: blockers of SAE1/SAE2–UBC9 SUMO transfer – biochemical, HTRF, uHTS, primary screen (AID 2006); type: protein-complex assay
[3] = biological target: Aryl hydrocarbon receptor (Homo sapiens, UniProt P35869); experiment: Luminescence-based cell-based high throughput dose response assay for activators of the Aryl Hydrocarbon Receptor (AHR). [Related pubchem assays: 2796 (Primary screen (AHR activators in singlicate)), 2845 (Confirmation screen (AHR activators in triplicate)), 434939 (Counterscreen (PXR activators in triplicate)), 2804 (Summary (AHR activators))]; type: ADME
HT-1080 = experiment: HT1080 cell viability loss – fluorescence readout (AID 620); type: functional, cell-based; conditions: Homo sapiens
[4] = biological target: T2, Rac GTPase-activating protein 1 (Homo sapiens, UniProt Q9H0H5); experiment: blockers of MgcRacGAP-driven Rac1 GTP hydrolysis – biochemical, ADP Hunter fluorescence, primary and confirmatory, confirmation (AID 624330); type: functional
T2 sequence (Q9H0H5 whole entry): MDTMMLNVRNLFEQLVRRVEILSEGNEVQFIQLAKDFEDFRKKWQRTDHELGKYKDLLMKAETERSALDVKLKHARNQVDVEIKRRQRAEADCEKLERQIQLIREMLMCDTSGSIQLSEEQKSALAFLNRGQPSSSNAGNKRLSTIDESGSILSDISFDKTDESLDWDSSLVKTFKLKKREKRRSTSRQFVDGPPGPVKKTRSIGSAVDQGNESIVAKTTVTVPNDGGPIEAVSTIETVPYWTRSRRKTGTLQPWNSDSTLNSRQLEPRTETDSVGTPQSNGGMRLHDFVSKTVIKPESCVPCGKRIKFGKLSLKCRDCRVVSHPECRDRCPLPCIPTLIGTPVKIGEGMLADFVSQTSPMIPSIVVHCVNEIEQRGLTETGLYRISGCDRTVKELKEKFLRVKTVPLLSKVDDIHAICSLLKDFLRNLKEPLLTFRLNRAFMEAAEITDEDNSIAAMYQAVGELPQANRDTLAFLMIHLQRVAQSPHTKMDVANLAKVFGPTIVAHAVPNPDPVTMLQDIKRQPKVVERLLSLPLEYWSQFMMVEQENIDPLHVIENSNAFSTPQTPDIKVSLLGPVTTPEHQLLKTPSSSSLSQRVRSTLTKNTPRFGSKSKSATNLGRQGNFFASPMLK

[5] = Late stage counterscreen results from the probe development effort to identify activators of signal transducer and activator of transcription 1 (STAT1): luminescence-based cell-based dose response assay to identify cytotoxic compounds.; type: functional
[6] = biological target: Luciferin 4-monooxygenase (Photinus pyralis, UniProt P08659); experiment: Counter Screen for Luciferase-based Assay Positives. [Related pubchem assays: 620, 618, 411 ]
Troponin, cardiac muscle = Troponin, cardiac muscle (Homo sapiens, UniProt P19429+P45379+P63316); experiment: Fluorescence-based biochemical high throughput dose response assay for activators of the calcium sensitivity of cardiac Regulated Thin Filaments (RTF). [Related pubchem assays (depositor defined):AID493008, AID493018, AID504382, AID504383]; type: protein-complex assay
Estrogen receptor beta [7] = biological target: T3, Estrogen receptor beta (Homo sapiens, UniProt Q92731);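 further: recombinant ER-beta bound to coactivator SRC1 peptide in presence of estradiol agonist; inhibitors block coactivator peptide binding and lower the FRET signal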
Estrogen receptor = biological target: T4, Estrogen receptor (Homo sapiens, UniProt P03372);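 further: potency for inhibiting coactivator peptide recruitment to the receptor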
T4 sequence (P03372 whole entry): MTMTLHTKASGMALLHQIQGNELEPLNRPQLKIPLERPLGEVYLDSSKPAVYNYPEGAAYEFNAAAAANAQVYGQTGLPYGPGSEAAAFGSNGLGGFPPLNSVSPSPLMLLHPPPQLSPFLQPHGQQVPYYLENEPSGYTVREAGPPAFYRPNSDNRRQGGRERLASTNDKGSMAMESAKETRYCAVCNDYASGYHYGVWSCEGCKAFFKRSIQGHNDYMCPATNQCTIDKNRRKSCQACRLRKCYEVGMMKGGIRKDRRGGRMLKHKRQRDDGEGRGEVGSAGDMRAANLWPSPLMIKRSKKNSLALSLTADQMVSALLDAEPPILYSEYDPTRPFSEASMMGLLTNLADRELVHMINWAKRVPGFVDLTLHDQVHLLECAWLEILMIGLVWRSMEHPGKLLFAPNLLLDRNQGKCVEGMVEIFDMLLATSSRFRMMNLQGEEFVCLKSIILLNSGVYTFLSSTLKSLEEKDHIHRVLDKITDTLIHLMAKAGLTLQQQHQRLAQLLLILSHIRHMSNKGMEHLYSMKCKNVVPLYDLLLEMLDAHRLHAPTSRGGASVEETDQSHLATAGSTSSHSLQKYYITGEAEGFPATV

[8] = biological target: Protein-tyrosine kinase 2-beta (Homo sapiens, UniProt Q14289);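 further: potency of inhibitors of PYK2 kinase phosphorylation of poly-GT substrate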
Estrogen receptor beta [9] = biological target: T3, Estrogen receptor beta; experiment: blockers of SRC-3 recruitment to ERβ – biochemical, ELISA, streptavidin-HRP readout, orthogonal assay, confirmation (AID 1060)
Genome polyprotein = Genome polyprotein (dengue virus type 2, UniProt P29990); experiment: flavivirus cap methylation enzyme inhibition – biochemical, confirmation dose response, primary screen (AID 588689); type: functional
[10] = reduction of Shn3 3'UTR-driven luciferase in osteoblasts – cell-based, Clone20 osteoblasts, firefly luciferase, cherry-picked, dose response (AID 624132); type: functional;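 further: firefly luciferase luminescence from reporter carrying the Shn3 3'UTR in osteoblasts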
Protein RecA = biological target: T5, Protein RecA (Mycobacterium tuberculosis, UniProt P9WHJ3); experiment: Fluorescence Cell-Free Homogeneous Dose Retest to Identify Inhibitors of RecA-Intein Splicing Activity. [Related pubchem assays (depositor defined):AID2097, AID2223, AID489010, AID492950]; type: functional
T5 sequence (P9WHJ3 whole entry): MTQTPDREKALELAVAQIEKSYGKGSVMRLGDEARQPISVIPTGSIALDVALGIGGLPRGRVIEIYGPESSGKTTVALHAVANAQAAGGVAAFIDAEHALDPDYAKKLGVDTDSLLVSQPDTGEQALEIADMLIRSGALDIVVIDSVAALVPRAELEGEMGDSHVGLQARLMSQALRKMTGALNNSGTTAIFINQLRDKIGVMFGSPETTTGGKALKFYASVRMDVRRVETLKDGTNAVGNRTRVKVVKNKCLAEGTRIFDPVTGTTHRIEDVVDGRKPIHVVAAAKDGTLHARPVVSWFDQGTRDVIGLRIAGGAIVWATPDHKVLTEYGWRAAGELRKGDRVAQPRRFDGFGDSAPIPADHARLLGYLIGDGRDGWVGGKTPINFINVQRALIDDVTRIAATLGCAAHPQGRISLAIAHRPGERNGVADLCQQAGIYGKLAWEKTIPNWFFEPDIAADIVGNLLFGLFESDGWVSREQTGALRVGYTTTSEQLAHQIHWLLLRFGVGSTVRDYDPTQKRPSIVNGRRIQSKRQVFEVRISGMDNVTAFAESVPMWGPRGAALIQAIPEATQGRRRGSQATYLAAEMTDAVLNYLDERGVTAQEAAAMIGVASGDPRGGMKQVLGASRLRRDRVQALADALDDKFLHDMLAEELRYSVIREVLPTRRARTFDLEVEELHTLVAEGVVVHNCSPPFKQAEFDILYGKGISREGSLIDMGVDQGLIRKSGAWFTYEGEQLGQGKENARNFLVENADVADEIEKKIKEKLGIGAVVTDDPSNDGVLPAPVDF

[11] = Shn3 3'UTR reporter signal decrease – cell-based, Clone20 osteoblasts, firefly luciferase, cherry-pick, set 2, Schnurri-3 inhibitor project, dose response (AID 720490); type: functional;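 further: actives lower the luminescence signal as inhibitors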
[12] = biological target: Hepatocyte nuclear factor 4-alpha (Homo sapiens, UniProt P41235); type: functional, cell-based;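 further: biochemical luminescence-based dose-response counterscreen measuring inhibition of HNF4 dimerization, run alongside a screen for blockers of ABHD5–perilipin-5 interaction; split luciferase complementation of HNF4 fusion proteins in cell lysate measuring dimerization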
[13] = biological target: T6, Replicative DNA helicase DnaB (Mycobacterium tuberculosis, UniProt P9WMR3); experiment: DnaB intein splicing inhibitors, dose response, biochemical, cell-free fluorescence (AID 449749); type: functional
T6 sequence (P9WMR3 whole entry): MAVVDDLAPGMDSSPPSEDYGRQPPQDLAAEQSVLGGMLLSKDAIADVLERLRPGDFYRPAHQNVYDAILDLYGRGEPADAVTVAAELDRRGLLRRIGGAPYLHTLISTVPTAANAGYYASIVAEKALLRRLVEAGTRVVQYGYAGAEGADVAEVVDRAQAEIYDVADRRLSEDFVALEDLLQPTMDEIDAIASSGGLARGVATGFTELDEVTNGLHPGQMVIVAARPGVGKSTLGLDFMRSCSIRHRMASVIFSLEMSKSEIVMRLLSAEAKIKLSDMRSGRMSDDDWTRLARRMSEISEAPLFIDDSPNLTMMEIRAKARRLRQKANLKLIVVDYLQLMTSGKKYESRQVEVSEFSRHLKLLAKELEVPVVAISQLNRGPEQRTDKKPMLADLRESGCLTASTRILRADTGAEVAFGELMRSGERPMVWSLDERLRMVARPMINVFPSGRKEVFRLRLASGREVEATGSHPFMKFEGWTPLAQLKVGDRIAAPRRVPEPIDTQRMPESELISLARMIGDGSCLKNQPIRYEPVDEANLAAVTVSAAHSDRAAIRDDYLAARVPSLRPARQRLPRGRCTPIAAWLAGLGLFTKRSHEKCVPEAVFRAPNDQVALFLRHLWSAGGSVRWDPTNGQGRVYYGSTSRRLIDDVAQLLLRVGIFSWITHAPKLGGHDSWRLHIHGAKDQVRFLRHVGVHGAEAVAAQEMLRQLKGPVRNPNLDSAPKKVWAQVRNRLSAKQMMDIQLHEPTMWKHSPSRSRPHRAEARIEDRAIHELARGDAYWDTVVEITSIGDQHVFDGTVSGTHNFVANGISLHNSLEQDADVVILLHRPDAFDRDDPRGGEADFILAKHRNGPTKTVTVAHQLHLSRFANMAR

[14] = biological target: Potassium voltage-gated channel subfamily KQT member 2 (Rattus norvegicus, UniProt O88943, W236L); experiment: potentiation of rat KCNQ2 current – cell-based, automated electrophysiology, mechanism study for KCNQ2 potentiator project, dose response (AID 2603); type: functional
[15] = biological target: Transitional endoplasmic reticulum ATPase (Homo sapiens, UniProt P55072, C522A); experiment: Luminescence counterscreen assay for p97 inhibitors: dose response biochemical high throughput screening assay to identify inhibitors of the C522A mutant p97 ATPase: synthesized compounds. [Related pubchem assays: 1481, 1517, 1551 ]
[16] = biological target: Transitional endoplasmic reticulum ATPase (Homo sapiens, UniProt P55072); experiment: Luminescence dose response biochemical high throughput screening assay for inhibitors of the p97 ATPase: synthesized compounds. [Related pubchem assays: 1481, 1517 ]
[17] = M. tuberculosis H37Rv growth inhibitors, H37Rv strain (AID 1626); type: functional
[18] = biological target: Voltage-gated inwardly rectifying potassium channel KCNH2 (Homo sapiens, UniProt Q12809); experiment: concentration-dependent hERG rescue from blockers – cell-based, thallium flux, dose response (AID 2121); type: ADME
[19] = biological target: T7, Calpain-2 catalytic subunit (Sus scrofa, UniProt P43367); experiment: m-calpain protease blockers, concentration series – biochemical, fluorogenic peptide substrate, dose response (AID 1420); type: functional
T7 sequence (P43367 whole entry): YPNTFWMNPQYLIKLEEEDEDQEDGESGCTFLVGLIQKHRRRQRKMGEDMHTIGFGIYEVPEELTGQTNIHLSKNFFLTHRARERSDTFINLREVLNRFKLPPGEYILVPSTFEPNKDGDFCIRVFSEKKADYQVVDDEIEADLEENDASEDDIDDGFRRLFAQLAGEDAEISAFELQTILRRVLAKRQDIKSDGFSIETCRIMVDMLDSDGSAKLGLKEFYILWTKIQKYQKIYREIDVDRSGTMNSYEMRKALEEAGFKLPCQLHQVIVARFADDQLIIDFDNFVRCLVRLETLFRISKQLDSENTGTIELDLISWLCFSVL

[20] = biological target: 5-hydroxytryptamine receptor 1A (Homo sapiens, UniProt P08908); type: functional

O=c1[nH]/c(=N\c2ccc(Br)cc2)sc2ccc([N+](=O)[O-])cc12
IC50 (SUMO-activating enzyme [1]): 34.6 µM (active) | IC50 (SUMO-activating enzyme [2]): 15.9 µM (active) | EC50 [3]: 5.11 µM (active)

N#C/C(=C\c1ccc(N2CCOCC2)o1)c1nc2ccccc2[nH]1
EC50 (HT-1080): > 50 µM (not active) | IC50 [4]: 12.2 µM (active) | IC50 [5]: > 55.7 µM (not active) | EC50 [6]: > 100 µM (not active) | EC50 (Troponin, cardiac muscle): 0.5 µM (active)

CC(=O)c1ccc(NCC(=O)N2CCN(c3ccccc3)CC2)cc1
IC50 (Estrogen receptor beta [7]): 2.64 µM (active) | IC50 (Estrogen receptor): 5.02 µM (active) | IC50 [8]: > 69.5 µM (not active) | IC50 (Estrogen receptor beta [9]): 37.1 µM (not active)

CCSc1nnc(NC(=O)c2nc(S(=O)(=O)Cc3ccc(F)cc3)ncc2Cl)s1
IC50 (Genome polyprotein): 41.5 µM (active) | AC50 [10]: 4.96 µM (active) | EC50 (Protein RecA): 1.08 µM (inconclusive) | AC50 [11]: 1.68 µM (active) | IC50 [12]: 5.51 µM (active) | AC50 [13]: 0.419 µM (inconclusive) | EC50 [14]: 38.9 µM (active)

N#Cc1ccc(Nc2nc(-c3cccc(Br)c3)cs2)cc1
IC50 [15]: > 50 µM (not active) | IC50 [16]: > 50 µM (not active)

Cn1cc(CN2CCN(c3ccc(Cl)cn3)CC2)c(-c2ccccc2F)n1
IC50 [17]: > 100 µM (active)

S=c1[nH]nc(CSc2nc3ccccc3s2)n1C1CCCCC1
EC50 [18]: 9.55 µM (active) | IC50 [19]: 14.3 µM (not active)

C1=C(c2c[nH]c3ccccc23)CCNC1
EC50 [20]: > 50 µM (not active)
